According to PubChem BioAssay AID1919010 (Molecular Pharmacology Branch, DTP, NCI, 2023):
pIC50: −log10 of the molar value.

System: Hs578T complex spheroid growth, percent test/control
Test: Anticancer human tumor Hs578T cell line growth inhibition [AhR];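 also: luminescent viability signal as a proxy for spheroid growth; spheroids exposed to agents for one week after three days of growth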
Settings: for pIC50: curve of first compound; for viability, T/C: stronger effect = lower value
Summary of the method: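 Complex tumor spheroids co-cultured with HUVEC and human MSC stroma; AhR antagonists tested in combination with standard-of-care and investigational agents. Top concentration at or near clinical Cmax (else 10 microM), half-log dilutions; growth expressed as percent test/control.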

[1] = second compound 0.1 µM, first compound 0.0316 µM
[2] = second compound 0.1 µM, first compound 0.1 µM
[3] = second compound 0.1 µM, first compound 0.316 µM
[4] = second compound 0.1 µM, first compound 1 µM
[5] = second compound 0.1 µM, first compound 3.16 µM
[6] = second compound 0.1 µM, first compound 10 µM
[7] = second compound 0.316 µM, first compound 0.0316 µM
[8] = second compound 0.316 µM, first compound 0.1 µM
[9] = second compound 0.316 µM, first compound 0.316 µM
[10] = second compound 0.316 µM, first compound 1 µM
[11] = second compound 0.316 µM, first compound 3.16 µM
[12] = second compound 0.316 µM, first compound 10 µM
[13] = second compound 1 µM, first compound 0.0316 µM
[14] = second compound 1 µM, first compound 0.1 µM
[15] = second compound 1 µM, first compound 0.316 µM
[16] = second compound 1 µM, first compound 1 µM
[17] = second compound 1 µM, first compound 3.16 µM
[18] = second compound 1 µM, first compound 10 µM
[19] = second compound 3.16 µM, first compound 0.0316 µM
[20] = second compound 3.16 µM, first compound 0.1 µM
[21] = second compound 3.16 µM, first compound 0.316 µM
[22] = second compound 3.16 µM, first compound 1 µM
[23] = second compound 3.16 µM, first compound 3.16 µM
[24] = second compound 3.16 µM, first compound 10 µM
[25] = second compound 10 µM, first compound 0.0316 µM
[26] = second compound 10 µM, first compound 0.1 µM
[27] = second compound 10 µM, first compound 0.316 µM
[28] = second compound 10 µM, first compound 1 µM
[29] = second compound 10 µM, first compound 3.16 µM
[30] = second compound 10 µM, first compound 10 µM
[31] = second compound 0.1 µM, first compound 0.00316 µM
[32] = second compound 0.1 µM, first compound 0.01 µM
[33] = second compound 0.316 µM, first compound 0.00316 µM
[34] = second compound 0.316 µM, first compound 0.01 µM
[35] = second compound 1 µM, first compound 0.00316 µM
[36] = second compound 1 µM, first compound 0.01 µM
[37] = second compound 3.16 µM, first compound 0.00316 µM
[38] = second compound 3.16 µM, first compound 0.01 µM
[39] = second compound 10 µM, first compound 0.00316 µM
[40] = second compound 10 µM, first compound 0.01 µM

| SMILES | pIC50 (second compound 0.1 µM) | pIC50 (second compound 0.316 µM) | pIC50 (second compound 1 µM) | pIC50 (second compound 3.16 µM) | pIC50 (second compound 10 µM) | viability, T/C [1] [%] | viability, T/C [2] [%] | viability, T/C [3] [%] | viability, T/C [4] [%] | viability, T/C [7] [%] | viability, T/C [8] [%] | viability, T/C [9] [%] | viability, T/C [10] [%] | viability, T/C [13] [%] | viability, T/C [14] [%] | viability, T/C [15] [%] | viability, T/C [19] [%] | viability, T/C [20] [%] | viability, T/C [25] [%] | viability, T/C [26] [%] | other results |
| --- | --- | --- | --- | --- | --- | --- | --- | --- | --- | --- | --- | --- | --- | --- | --- | --- | --- | --- | --- | --- | --- |
| CC(C)c1c(-c2ccccc2)nc2c(C#N)c[nH]n2c1=O + CC(CO)NC(=O)c1cc(-c2ccc(Cl)cc2)nn(-c2cnn(C)c2)c1=O | < 5.00 | < 5.00 | < 5.00 | < 5.00 | < 5.00 | 109 | 116 | 121 | 113 | 113 | 129 | 123 | 111 | 109 | 124 | 119 | 115 | 124 | 110 | 113 | viability, T/C [5]: 119%; viability, T/C [6]: 111%; viability, T/C [11]: 113%; viability, T/C [12]: 115%; viability, T/C [16]: 113%; viability, T/C [17]: 113%; viability, T/C [18]: 116%; viability, T/C [21]: 131%; viability, T/C [22]: 113%; viability, T/C [23]: 120%; viability, T/C [24]: 120%; viability, T/C [27]: 107%; viability, T/C [28]: 110%; viability, T/C [29]: 113%; viability, T/C [30]: 110% |
| COc1ccc([C@@H](O)c2cc(-c3ncnc4cc(N5CCOCC5)ccc34)c(F)cc2Cl)nn1 + CC(CO)NC(=O)c1cc(-c2ccc(Cl)cc2)nn(-c2cnn(C)c2)c1=O | 5.26 | 5.31 | 5.22 | 5.38 | 5.31 | 109 | 111 | 105 | 89.2 | 113 | 115 | 104 | 87.2 | 117 | 112 | 102 | 111 | 106 | 95.6 | 97.5 | viability, T/C [5]: 64.2%; viability, T/C [6]: 35.7%; viability, T/C [11]: 57.8%; viability, T/C [12]: 36.7%; viability, T/C [16]: 85.8%; viability, T/C [17]: 65.1%; viability, T/C [18]: 38.3%; viability, T/C [21]: 102%; viability, T/C [22]: 84%; viability, T/C [23]: 52.9%; viability, T/C [24]: 38.7%; viability, T/C [27]: 99.9%; viability, T/C [28]: 82.5%; viability, T/C [29]: 56.9%; viability, T/C [30]: 39.5% |
| CC[C@@]1(O)C(=O)OCc2c1cc1n(c2=O)Cc2cc3c(CN(C)C)c(O)ccc3nc2-1 + Cc1ccccc1N=Nc1ccc(NC(=O)c2ccnn2C)c(C)c1 | < 7.00 | < 7.00 | < 7.00 | < 7.00 | 7.12 | 69.1 | 69.2 | – | – | 78.3 | 68.3 | – | – | 71.7 | 61.7 | – | 63.4 | 55.9 | 50.4 | 50.1 | viability, T/C (second compound 0.1 µM, first compound 0.000316 µM): 101%; viability, T/C (second compound 0.1 µM, first compound 0.001 µM): 106%; viability, T/C [31]: 89.4%; viability, T/C [32]: 73.3%; viability, T/C (second compound 0.316 µM, first compound 0.000316 µM): 108%; viability, T/C (second compound 0.316 µM, first compound 0.001 µM): 104%; viability, T/C [33]: 89.9%; viability, T/C [34]: 80.7%; viability, T/C (second compound 1 µM, first compound 0.000316 µM): 99.2%; viability, T/C (second compound 1 µM, first compound 0.001 µM): 110%; viability, T/C [35]: 96%; viability, T/C [36]: 79.8%; viability, T/C (second compound 3.16 µM, first compound 0.000316 µM): 94.5%; viability, T/C (second compound 3.16 µM, first compound 0.001 µM): 90.8%; viability, T/C [37]: 83.1%; viability, T/C [38]: 66.8%; viability, T/C (second compound 10 µM, first compound 0.000316 µM): 65.3%; viability, T/C (second compound 10 µM, first compound 0.001 µM): 61.3%; viability, T/C [39]: 65.6%; viability, T/C [40]: 59.6% |
| COc1cc(C2c3cc4c(cc3C(OC3OC5COC(C)OC5C(O)C3O)C3COC(=O)C23)OCO4)cc(OC)c1O (stereo not given) + Cc1ccccc1N=Nc1ccc(NC(=O)c2ccnn2C)c(C)c1 | < 5.00 | < 5.00 | < 5.00 | 5.05 | 5.29 | 97.1 | 96.1 | 77.3 | 72.8 | 101 | 103 | 88.9 | 83.1 | 92.6 | 86.4 | 77.3 | 81.2 | 78.8 | 68.6 | 68.1 | viability, T/C [5]: 79.5%; viability, T/C [6]: 57.9%; viability, T/C [11]: 72.2%; viability, T/C [12]: 68.9%; viability, T/C [16]: 73.9%; viability, T/C [17]: 66.3%; viability, T/C [18]: 63.1%; viability, T/C [21]: 76.9%; viability, T/C [22]: 73.7%; viability, T/C [23]: 68.5%; viability, T/C [24]: 48%; viability, T/C [27]: 67.6%; viability, T/C [28]: 57.6%; viability, T/C [29]: 54.4%; viability, T/C [30]: 44.9% |
| COc1cccc2c1C(=O)c1c(O)c3c(c(O)c1C2=O)CC(O)(C(=O)CO)CC3OC1CC(N)C(O)C(C)O1 (stereo not given) + Cc1ccccc1N=Nc1ccc(NC(=O)c2ccnn2C)c(C)c1 | 6.62 | 6.55 | 6.43 | 6.45 | 6.43 | 89.8 | 72.5 | 44.7 | 10 | 67.9 | 64.2 | 48.3 | 9.72 | 80.4 | 75 | 56.3 | 68.7 | 63.2 | 65.2 | 64.4 | viability, T/C [5]: 2.16%; viability, T/C [6]: 2.24%; viability, T/C [11]: 1.94%; viability, T/C [12]: 2.15%; viability, T/C [16]: 14.4%; viability, T/C [17]: 1.79%; viability, T/C [18]: 2.15%; viability, T/C [21]: 54.5%; viability, T/C [22]: 10.2%; viability, T/C [23]: 1.55%; viability, T/C [24]: 1.85%; viability, T/C [27]: 56.6%; viability, T/C [28]: 6.88%; viability, T/C [29]: 1.17%; viability, T/C [30]: 1.93% |
| Nc1ncn(C2CC(O)C(CO)O2)c(=O)n1 (stereo not given) + Cc1ccccc1N=Nc1ccc(NC(=O)c2ccnn2C)c(C)c1 | < 6.00 | < 6.00 | < 6.00 | < 6.00 | < 6.00 | 97.2 | 98 | 99.2 | 90 | 96.8 | 98.9 | 85.8 | 81.6 | 106 | 91.8 | 86.2 | 85.9 | 90.8 | 60.9 | 66 | viability, T/C [31]: 103%; viability, T/C [32]: 109%; viability, T/C [33]: 97.5%; viability, T/C [34]: 97.2%; viability, T/C [35]: 95.4%; viability, T/C [36]: 92%; viability, T/C [16]: 84.9%; viability, T/C [37]: 83.3%; viability, T/C [38]: 87.2%; viability, T/C [21]: 78.5%; viability, T/C [22]: 79.8%; viability, T/C [39]: 63%; viability, T/C [40]: 70.5%; viability, T/C [27]: 63.4%; viability, T/C [28]: 68% |
